The values below come from US8765420B2, “Method for preparing pterocarpan” (priority 2010, dated 2014).

Molecules are shown by their SMILES.

For this experiment, the target named is T1, biphenyl dioxygenase of P. pseudoalcaligenes KF707 (SEQ ID NO:3) (Metapseudomonas furukawaii, UniProt Q52028).
T1 construct: expressed in transfected cells; host or cells: Escherichia coli JM109 (pJHF108)
The experiment is described as follows: Biotransformation kinetics by whole cells of E. coli expressing biphenyl dioxygenase. The following applies: for Corresponding epoxides produced after 5 h reaction: initial concentration of substrate 250 μM, whole cells of E. coli expressing BDO, 37° C., means of triplicate ± standard errors. The experiment is classed as biochemical, Pseudomonas pseudoalcaligenes strain KF707. Here is the method: E. coli JM109 (pJHF108) was seed cultivated in 50 mL of LB medium containing ampicillin […] at 37° C. for 12 hours. The cultivated seed was inoculated to a 5-L fermentor (BioFlo 3000, Korea fermentor Co., Korea) containing 4.5 L of LB medium and […] of ampicillin, and mixed at 37° C. at 200 rpm for 8 hours. The culture broth was centrifuged at 8,000 g for 10 minutes using VS-21SMT centrifuge (Vision Scientific Co., Bucheon, Korea). Cells were washed three times with 100 mM minimal salt buffer and resuspended in the same buffer, adjusting to the optical density at 600 nm using a UV/visible spectrophotometer (Shimadzu, UV-1601PC, Kyoto, Japan).
Analytical HPLC was carried out using a Varian Prostar HPLC apparatus (Walnut Creek, Calif.) equipped with a photodiode array […] detector. For the analysis of isoflavan-4-ol stereoisomers and their metabolites, a Waters Spherisorb ODS-2 column ([…], 4.6 mm×25 cm, Milford, Mass.) was used. The mobile phase was operated as a linear gradient that made up of water-acetonitrile containing 0.1% formic acid (10% acetonitrile at 0 min, 40% acetonitrile at 15 min, 90% acetonitrile at 25 min, and 90% acetonitrile at 40 min). The flow rate was 1 mL/min and UV detection was performed at 270 nm. For the analysis of enantiomers of cis- and trans-isoflavan-4-ol, a Sumi Chiral OA-7000 column (5 mm, 4.6 mm×25 cm, Sumika Chemical Analysis Service, Ltd., Osaka, Japan) and mobile phase composed of 60:40 (v/v) of 20 mM phosphate buffer (pH 3.0) and acetonitrile were used. The flow rate was 1 mL/min and UV detection was performed at 270 nm.
Biotransformation kinetics by whole cells of E. coli expressing biphenyl dioxygenase was performed as follows. The bacterial culture was prepared as described above, resuspended in 50 mL of phosphate buffer containing 1 mM glucose in a 250 mL flask, and adjusted to a final culture concentration of OD 600 nm=0.6. Then, the bacterial culture was incubated with 250 μM each of four purified isoflavan-4-ol stereoisomers ((3S,4S)- and (3R,4R)-cis-isoflavan-4-ols and (3S,4R)- and (3R,4S)-trans-isoflavan-4-ols) on a rotary shaker (200 rpm) at 37° C. The bacterial cultures (2 mL) were extracted with ethyl acetate, and the solvent was evaporated to dryness as described above. Quantification of metabolites and parent compound by using HPLC with time was monitored in triplicate experiments. Due to the instability of metabolites which were produced from parent compound, the quantity was calculated from the peak area as compared to the standard curve of the parent compound.

T1 sequence (Q52028 whole entry M237T/S238T/M247I/H255Q/V258I/G268A/F277Y/M283S/M285L/D303E/T340I): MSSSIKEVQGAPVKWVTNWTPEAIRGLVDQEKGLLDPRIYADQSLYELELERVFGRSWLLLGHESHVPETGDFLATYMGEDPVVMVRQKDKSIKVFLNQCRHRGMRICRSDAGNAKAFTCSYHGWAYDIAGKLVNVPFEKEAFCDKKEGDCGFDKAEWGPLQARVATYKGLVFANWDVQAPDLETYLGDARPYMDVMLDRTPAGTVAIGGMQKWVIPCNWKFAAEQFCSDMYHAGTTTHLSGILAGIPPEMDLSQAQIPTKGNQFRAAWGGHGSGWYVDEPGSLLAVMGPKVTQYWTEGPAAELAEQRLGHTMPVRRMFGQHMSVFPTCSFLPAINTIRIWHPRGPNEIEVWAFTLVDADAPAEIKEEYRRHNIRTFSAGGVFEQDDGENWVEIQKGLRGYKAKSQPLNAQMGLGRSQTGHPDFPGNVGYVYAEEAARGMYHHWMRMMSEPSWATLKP

On to `O[C@@H]1c2ccccc2OC[C@H]1c1ccccc1` (stereo in doubt) [(3R,4S)-trans-isoflavan-4-ol], for which the “Corresponding epoxides produced after 5 h reaction” value (shortened to “Corresponding epoxides produced”) turned out to be 163.3 µM. Also, the “Corresponding epoxides produced” value (listed as Trans-isoflavan-4-ol (3R,4S)) worked out at 163.3 ± 6.8 µM. Regarding `O[C@H]1c2ccccc2OC[C@@H]1c1ccccc1` (stereo in doubt) [(3S,4R)-trans-isoflavan-4-ol], the “Corresponding epoxides produced” value is 141.1 µM. In addition, the “Corresponding epoxides produced” value (listed as Trans-isoflavan-4-ol (3S,4R)) stood at 141.1 ± 6.2 µM. Turning to `O[C@@H]1c2ccccc2OC[C@@H]1c1ccccc1` (stereo in doubt) [(3S,4S)-cis-isoflavan-4-ol], the “Corresponding epoxides produced” value was determined as 194.8 ± 5.5 µM. Further, the “epoxide production relative to that from (3R,4R)-cis-isoflavan-4-ol” value (after 5 h of reaction) was “about 4.8 fold”. With `O[C@H]1c2ccccc2OC[C@H]1c1ccccc1` (stereo in doubt) [(3R,4R)-cis-isoflavan-4-ol], the “Corresponding epoxides produced” value was found to be 40 ± 4.0 µM.
